Source: patent US9796711B2, “Substituted pyrazolo[3,4-b]pyridin-6-carboxylic acids and method of use” (AbbVie S.àr.l., priority 2015, dated 2017)

Tests used:
ΔF508-CFTR [1] = target: T1, ΔF508-CFTR (Homo sapiens, UniProt P13569, DEL508-508); assay: CFTR cell surface levels using HRP-tagged ΔF508-CFTR expressing CFBE cells, intrinsic corrector capacity; type: cell-based; conditions: for EC50: read-out: EC50
T1 construct: host or cells: CFBE41o-, doxycycline-inducible
Method in brief: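 Here the cells express ΔF508-CFTR with horseradish peroxidase inserted in extracellular loop 4, so only rescued channel at the surface gives luminescent signal. Compounds act on their own, 20 h at the reduced temperature of 33 °C; values are percent activity relative to DMSO and a 3 μM corrector.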

ΔF508-CFTR [2] = target: T1, ΔF508-CFTR; assay: CFTR cell surface levels using HRP-tagged ΔF508-CFTR expressing CFBE cells, in the presence of a co-corrector; type: cell-based; conditions: HRP-tagged ΔF508-CFTR expressing CFBE cells, in the presence of 3 μM co-corrector; for EC50: read-out: EC50
Method in brief: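 Cells were seeded with 0.5 μg/mL doxycycline and held 68 h at 37 °C. Test compounds plus 3 μM co-corrector (final 0.1% DMSO) were then added for 20 h at 33 °C. Washed cells received HRP substrate, and luminescence was normalized between DMSO and 3 μM co-corrector controls.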

[3] = HRP-tagged ΔF508-CFTR expressing CFBE cells, intrinsic corrector capacity (no co-corrector), 33° C., 20 hours
[4] = HRP-tagged ΔF508-CFTR CFBE41o- cells, compounds alone (intrinsic corrector capacity), 20 hours at 33° C., positive control 3 μM corrector
[5] = HRP-tagged ΔF508-CFTR CFBE41o- cells, compounds alone (intrinsic corrector capacity), 20 hours at 33° C.

T1 sequence (P13569 with tags, fused parts or gaps DEL508-508): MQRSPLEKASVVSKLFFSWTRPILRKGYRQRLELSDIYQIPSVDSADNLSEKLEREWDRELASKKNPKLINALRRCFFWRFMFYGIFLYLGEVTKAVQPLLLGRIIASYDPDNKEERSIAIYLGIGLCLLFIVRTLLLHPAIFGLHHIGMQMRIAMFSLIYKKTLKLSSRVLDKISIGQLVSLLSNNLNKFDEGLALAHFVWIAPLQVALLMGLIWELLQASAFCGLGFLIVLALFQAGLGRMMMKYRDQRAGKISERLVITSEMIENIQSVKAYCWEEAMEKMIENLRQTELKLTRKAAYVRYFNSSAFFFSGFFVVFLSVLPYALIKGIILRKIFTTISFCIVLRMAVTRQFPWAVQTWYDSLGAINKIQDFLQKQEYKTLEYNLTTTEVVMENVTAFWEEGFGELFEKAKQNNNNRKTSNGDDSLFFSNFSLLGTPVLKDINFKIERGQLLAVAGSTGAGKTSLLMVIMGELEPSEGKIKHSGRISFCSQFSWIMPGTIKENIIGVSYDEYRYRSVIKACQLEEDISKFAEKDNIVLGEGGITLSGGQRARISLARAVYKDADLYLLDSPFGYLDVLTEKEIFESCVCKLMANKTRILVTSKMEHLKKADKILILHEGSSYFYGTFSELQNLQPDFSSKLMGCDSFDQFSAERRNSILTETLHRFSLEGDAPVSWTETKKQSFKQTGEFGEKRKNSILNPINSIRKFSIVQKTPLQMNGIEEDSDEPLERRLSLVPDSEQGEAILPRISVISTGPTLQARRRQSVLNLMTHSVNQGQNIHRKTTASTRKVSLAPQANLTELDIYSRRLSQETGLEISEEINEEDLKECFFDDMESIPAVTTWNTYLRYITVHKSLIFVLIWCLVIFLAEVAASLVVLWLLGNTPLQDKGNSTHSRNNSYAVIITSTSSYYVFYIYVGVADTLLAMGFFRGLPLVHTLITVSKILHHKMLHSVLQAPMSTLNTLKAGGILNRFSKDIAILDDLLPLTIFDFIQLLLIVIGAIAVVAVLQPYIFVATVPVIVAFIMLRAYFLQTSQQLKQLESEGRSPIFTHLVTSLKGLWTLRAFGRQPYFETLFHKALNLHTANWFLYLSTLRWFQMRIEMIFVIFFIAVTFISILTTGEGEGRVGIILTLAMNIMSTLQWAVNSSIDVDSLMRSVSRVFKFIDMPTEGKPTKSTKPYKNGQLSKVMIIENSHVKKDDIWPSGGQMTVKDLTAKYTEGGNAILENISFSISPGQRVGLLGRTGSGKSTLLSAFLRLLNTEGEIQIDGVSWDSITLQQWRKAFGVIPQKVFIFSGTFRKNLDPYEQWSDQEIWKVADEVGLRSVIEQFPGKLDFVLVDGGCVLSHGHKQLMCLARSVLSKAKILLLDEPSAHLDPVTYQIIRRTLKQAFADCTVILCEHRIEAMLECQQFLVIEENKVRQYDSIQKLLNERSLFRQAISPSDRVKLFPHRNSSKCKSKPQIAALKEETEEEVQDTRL

Structure (SMILES)	% Activation (ΔF508-CFTR [1]; [3]) [%]	EC50 (ΔF508-CFTR [1]; [3]) [µM]	% Activation (ΔF508-CFTR [2]) [%]	EC50 (ΔF508-CFTR [2]) [µM]	% Activation (ΔF508-CFTR [1]; [4]) [%]	EC50 (ΔF508-CFTR [1]; [5]) [µM]
CN1CCCN(CCOc2cc(C(=O)O)nc3c2c(C2CCC2)nn3-c2ccccc2)CC1 [compound 644, 3-cyclobutyl-4-[2-(4-methyl-1,4-diazepan-1-yl)ethoxy]-1-phenyl-1H-pyrazolo[3,4-b]pyridine-6-carboxylic acid]	42.75	3.33	196.3	3.33	–	–
CC(C)c1nn(-c2ccc(F)cc2)c2nc(C(=O)O)cc(N3CCN(CCO)CC3)c12 [compound 773, 1-(4-fluorophenyl)-4-[4-(2-hydroxyethyl)piperazin-1-yl]-3-(propan-2-yl)-1H-pyrazolo[3,4-b]pyridine-6-carboxylic acid]	16.13	5	141.8	5	–	–
O=C(O)c1cc(N2CCC3C(CCN3C3COC3)C2)c2c(C3CCC3)nn(-c3ccc(F)cc3)c2n1 (centres unmarked) [compound 902, 3-cyclobutyl-1-(4-fluorophenyl)-4-[1-(oxetan-3-yl)octahydro-5H-pyrrolo[3,2-c]pyridin-5-yl]-1H-pyrazolo[3,4-b]pyridine-6-carboxylic acid]	193.9	0.23	411.75	0.114	–	–
COCC1CCN(c2cc(C(=O)O)nc3c2c(C(C)C)nn3C2CCCCC2)CC1 [compound 431, 1-cyclohexyl-4-[4-(methoxymethyl)piperidin-1-yl]-3-(propan-2-yl)-1H-pyrazolo[3,4-b]pyridine-6-carboxylic acid]	198.57	0.543	416.6	0.425	–	–
CC(C)c1nn(-c2cccc(N(C)C)c2)c2nc(C(=O)O)cc(-c3cnc(N4CCC(C#N)CC4)nc3)c12 [compound 199, 4-[2-(4-cyanopiperidin-1-yl)pyrimidin-5-yl]-1-[3-(dimethylamino)phenyl]-3-(propan-2-yl)-1H-pyrazolo[3,4-b]pyridine-6-carboxylic acid]	–	–	602.4	0.917	356.9	1.22
COC(=O)N1CC(c2nn(C3CCCCC3)c3nc(C(=O)O)cc(-c4cnc(N(C)C)nc4)c23)C1 [compound 166, 1-cyclohexyl-4-[2-(dimethylamino)pyrimidin-5-yl]-3-[1-(methoxycarbonyl)azetidin-3-yl]-1H-pyrazolo[3,4-b]pyridine-6-carboxylic acid]	–	–	241.5	3.26	68.01	3.34
Cc1nn(-c2ccccc2)c2nc(C(=O)O)cc(N3CC4(CCCCC4)C3)c12 [compound 309, 4-(2-azaspiro[3.5]nonan-2-yl)-3-methyl-1-phenyl-1H-pyrazolo[3,4-b]pyridine-6-carboxylic acid]	–	–	237.3	1.33	67.305	1.33
CC(C)c1nn(C2CCCCC2)c2nc(C(=O)O)cc(-c3cnc(N(C)C)nc3)c12 [compound 62, 1-cyclohexyl-4-[2-(dimethylamino)pyrimidin-5-yl]-3-(propan-2-yl)-1H-pyrazolo[3,4-b]pyridine-6-carboxylic acid]	–	–	349.9	1.69	159.65	2.63
CN(C)CCOc1cc(C(=O)O)nc2c1c(C1CCC1)nn2-c1ccccc1 [compound 637, 3-cyclobutyl-4-[2-(dimethylamino)ethoxy]-1-phenyl-1H-pyrazolo[3,4-b]pyridine-6-carboxylic acid]	49.14	3.33	174.45	3.01	–	–
O=C(O)c1cc(OCC2CCC(F)(F)CC2)c2c(C3CCC3)nn(-c3ccccc3)c2n1 [compound 616, 3-cyclobutyl-4-[(4,4-difluorocyclohexyl)methoxy]-1-phenyl-1H-pyrazolo[3,4-b]pyridine-6-carboxylic acid]	144.2	0.116	389.95	0.0833	–	–
COCCOC1CCN(c2cc(C(=O)O)nc3c2c(C2CCC2)nn3-c2ccccc2)CC1 [compound 685, 3-cyclobutyl-4-[4-(2-methoxyethoxy)piperidin-1-yl]-1-phenyl-1H-pyrazolo[3,4-b]pyridine-6-carboxylic acid]	260.5	0.164	510.3	0.245	–	–
Cc1nn(C)cc1-c1cc(C(=O)O)nc2c1c(C(C)C)nn2C1CCCCC1 [compound 352, 1-cyclohexyl-4-(1,3-dimethyl-1H-pyrazol-4-yl)-3-(propan-2-yl)-1H-pyrazolo[3,4-b]pyridine-6-carboxylic acid]	–	–	210.15	1.43	55.175	1.51
COCC1CN(c2cc(C(=O)O)nc3c2c(C2CCC2)nn3-c2ccccc2)C1 [compound 418, 3-cyclobutyl-4-[3-(methoxymethyl)azetidin-1-yl]-1-phenyl-1H-pyrazolo[3,4-b]pyridine-6-carboxylic acid]	144.95	1.22	342.25	0.598	–	–
N#CC1CN(C2CCN(c3cc(C(=O)O)nc4c3c(C3CCC3)nn4-c3ccc(F)cc3)CC2)C1 [compound 847, 4-[4-(3-cyanoazetidin-1-yl)piperidin-1-yl]-3-cyclobutyl-1-(4-fluorophenyl)-1H-pyrazolo[3,4-b]pyridine-6-carboxylic acid]	279.1	0.539	503.8	0.286	–	–
Cc1nn(-c2ccccc2)c2nc(C(=O)O)cc(N3CC4CC4C3)c12 (centres unmarked) [compound 304, 4-(3-azabicyclo[3.1.0]hexan-3-yl)-3-methyl-1-phenyl-1H-pyrazolo[3,4-b]pyridine-6-carboxylic acid]	–	–	254.9	1.99	98.425	2.51
Cc1nn(-c2cccc(C(F)(F)F)c2)c2nc(C(=O)O)cc(-c3ccc(N4CCOCC4)nc3)c12 [compound 102, 3-methyl-4-[6-(morpholin-4-yl)pyridin-3-yl]-1-[3-(trifluoromethyl)phenyl]-1H-pyrazolo[3,4-b]pyridine-6-carboxylic acid]	–	–	384	0.949	153	1.04
COCC1CCN(c2cc(C(=O)O)nc3c2c(C2CCC2)nn3-c2ccnc(C3CCOCC3)c2)CC1 [compound 817, 3-cyclobutyl-4-[4-(methoxymethyl)piperidin-1-yl]-1-[2-(oxan-4-yl)pyridin-4-yl]-1H-pyrazolo[3,4-b]pyridine-6-carboxylic acid]	168	0.152	384.9	0.0464	–	–
Cc1nn(-c2ccccc2)c2nc(C(=O)O)cc(-c3ccc(N4CC5(COC5)C4)cc3)c12 [compound 126, 3-methyl-4-[4-(2-oxa-6-azaspiro[3.3]heptan-6-yl)phenyl]-1-phenyl-1H-pyrazolo[3,4-b]pyridine-6-carboxylic acid]	–	–	319.25	0.837	156.45	1.69
O=C(O)c1cc(N2CCC3(CCCO3)C2)c2c(C3CCC3)nn(-c3ccccc3)c2n1 (centres unmarked) [compound 518, 3-cyclobutyl-4-(1-oxa-7-azaspiro[4.4]nonan-7-yl)-1-phenyl-1H-pyrazolo[3,4-b]pyridine-6-carboxylic acid]	62.95	0.371	237	0.531	–	–
CC(C)c1nn(C2CCCCC2)c2nc(C(=O)O)cc(-c3ccc(N4CCC(C)(C#N)CC4)nc3)c12 [compound 203, 4-[6-(4-cyano-4-methylpiperidin-1-yl)pyridin-3-yl]-1-cyclohexyl-3-(propan-2-yl)-1H-pyrazolo[3,4-b]pyridine-6-carboxylic acid]	–	–	361.75	0.756	162.5	0.843
CN(C)CCCOc1cc(C(=O)O)nc2c1c(C1CCC1)nn2-c1ccccc1 [compound 635, 3-cyclobutyl-4-[3-(dimethylamino)propoxy]-1-phenyl-1H-pyrazolo[3,4-b]pyridine-6-carboxylic acid]	86.1	3.33	233.85	2.11	–	–
Cc1nn(-c2ccccc2)c2nc(C(=O)O)cc(-c3ccc(N(C)C4COC4)cc3)c12 [compound 140, 3-methyl-4-{4-[methyl(oxetan-3-yl)amino]phenyl}-1-phenyl-1H-pyrazolo[3,4-b]pyridine-6-carboxylic acid]	–	–	362.05	0.941	178	1.5
CC(C)c1nn(-c2cc(F)cc(F)c2)c2nc(C(=O)O)cc(-c3ccc(N(C)C4CCOCC4)cc3)c12 [compound 245, 1-(3,5-difluorophenyl)-4-{4-[methyl(oxan-4-yl)amino]phenyl}-3-(propan-2-yl)-1H-pyrazolo[3,4-b]pyridine-6-carboxylic acid]	–	–	508.37	0.627	267.15	0.777
